Test results from patent US5858684A, “Method of screening calcium receptor-active molecules” (priority 1995, dated 1999).
Entries after “also recorded” stand apart in the source; their conditions may differ.

Legend:
[1] = biological target: T1, human parathyroid cell calcium receptor (pHuPCaR 5.2, pHuPCaR 4.0) (Homo sapiens, UniProt P41180); test: Cl- current in Xenopus oocytes expressing cloned human parathyroid calcium receptor; format: cell-based; conditions: for concentrations evoking increases in Cl- current: 0.3 mM extracellular Ca2+; for response in the absence of extracellular Ca2+: no extracellular Ca2+
T1 sequence (P41180 with tags, fused parts or gaps INS536PLTFVLSVLQ/Q926R/E1011Q): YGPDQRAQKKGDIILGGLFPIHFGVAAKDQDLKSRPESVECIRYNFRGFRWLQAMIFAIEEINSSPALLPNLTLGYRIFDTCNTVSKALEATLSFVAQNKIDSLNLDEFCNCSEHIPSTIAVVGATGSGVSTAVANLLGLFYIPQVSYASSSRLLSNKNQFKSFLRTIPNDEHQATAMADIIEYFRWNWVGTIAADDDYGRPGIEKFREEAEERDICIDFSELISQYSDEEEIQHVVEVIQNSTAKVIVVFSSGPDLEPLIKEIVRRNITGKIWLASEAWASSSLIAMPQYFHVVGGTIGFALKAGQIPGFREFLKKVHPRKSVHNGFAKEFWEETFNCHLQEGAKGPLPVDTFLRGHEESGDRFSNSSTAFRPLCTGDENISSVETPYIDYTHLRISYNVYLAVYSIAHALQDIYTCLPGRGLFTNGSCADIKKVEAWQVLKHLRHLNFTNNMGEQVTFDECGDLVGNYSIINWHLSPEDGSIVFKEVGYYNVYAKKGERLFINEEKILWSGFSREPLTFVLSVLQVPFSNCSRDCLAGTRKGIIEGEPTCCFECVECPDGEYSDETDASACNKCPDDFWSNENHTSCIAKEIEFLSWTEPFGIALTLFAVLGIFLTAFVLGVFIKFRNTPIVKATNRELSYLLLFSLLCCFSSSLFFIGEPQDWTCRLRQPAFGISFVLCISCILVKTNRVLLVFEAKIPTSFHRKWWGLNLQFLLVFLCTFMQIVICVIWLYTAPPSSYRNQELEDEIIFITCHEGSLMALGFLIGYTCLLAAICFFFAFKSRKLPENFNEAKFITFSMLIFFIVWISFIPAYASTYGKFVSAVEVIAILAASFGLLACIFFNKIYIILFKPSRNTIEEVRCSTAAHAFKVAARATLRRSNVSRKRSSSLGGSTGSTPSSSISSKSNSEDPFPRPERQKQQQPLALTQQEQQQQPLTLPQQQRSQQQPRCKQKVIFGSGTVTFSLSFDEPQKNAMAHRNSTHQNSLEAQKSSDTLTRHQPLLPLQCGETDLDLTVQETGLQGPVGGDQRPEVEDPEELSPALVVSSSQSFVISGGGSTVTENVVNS
Experimental: Representative cDNA inserts for both size classes were subcloned into the plasmid vector pBluescript SK. Linearization followed by in vitro transcription using T7 RNA polymerase produced cRNA transcripts. The cRNA transcripts were injected into Xenopus oocytes (150 ng/μl RNA; 50 nl/oocyte) for functional analysis. Following incubation periods of 2-4 days, the oocytes were assayed for the presence of functional calcium receptors. Both clone types gave rise to functional calcium receptors as assessed by the stimulation of calcium-activated chloride currents upon addition of appropriate calcium receptor agonists. […] Thus, both clones encode a functional, human parathyroid cell calcium receptor.
Xenopus oocytes were injected with pHuPCaR 5.2, the 5.2 Kb cDNA encoding a parathyroid cell calcium receptor derived from a human parathyroid cell adenoma. (See Example 27.) After two to three days, Cl^- currents were measured in the oocytes using a two-electrode voltage clamp.

[2] = biological target: T2, C-cell calcium receptor (Rattus norvegicus, UniProt P48442); test: increase in [Ca2+]i in C-cell line 44-2; format: cell-based; conditions: 1 mM extracellular Ca2+
T2 sequence (P48442 20-1079): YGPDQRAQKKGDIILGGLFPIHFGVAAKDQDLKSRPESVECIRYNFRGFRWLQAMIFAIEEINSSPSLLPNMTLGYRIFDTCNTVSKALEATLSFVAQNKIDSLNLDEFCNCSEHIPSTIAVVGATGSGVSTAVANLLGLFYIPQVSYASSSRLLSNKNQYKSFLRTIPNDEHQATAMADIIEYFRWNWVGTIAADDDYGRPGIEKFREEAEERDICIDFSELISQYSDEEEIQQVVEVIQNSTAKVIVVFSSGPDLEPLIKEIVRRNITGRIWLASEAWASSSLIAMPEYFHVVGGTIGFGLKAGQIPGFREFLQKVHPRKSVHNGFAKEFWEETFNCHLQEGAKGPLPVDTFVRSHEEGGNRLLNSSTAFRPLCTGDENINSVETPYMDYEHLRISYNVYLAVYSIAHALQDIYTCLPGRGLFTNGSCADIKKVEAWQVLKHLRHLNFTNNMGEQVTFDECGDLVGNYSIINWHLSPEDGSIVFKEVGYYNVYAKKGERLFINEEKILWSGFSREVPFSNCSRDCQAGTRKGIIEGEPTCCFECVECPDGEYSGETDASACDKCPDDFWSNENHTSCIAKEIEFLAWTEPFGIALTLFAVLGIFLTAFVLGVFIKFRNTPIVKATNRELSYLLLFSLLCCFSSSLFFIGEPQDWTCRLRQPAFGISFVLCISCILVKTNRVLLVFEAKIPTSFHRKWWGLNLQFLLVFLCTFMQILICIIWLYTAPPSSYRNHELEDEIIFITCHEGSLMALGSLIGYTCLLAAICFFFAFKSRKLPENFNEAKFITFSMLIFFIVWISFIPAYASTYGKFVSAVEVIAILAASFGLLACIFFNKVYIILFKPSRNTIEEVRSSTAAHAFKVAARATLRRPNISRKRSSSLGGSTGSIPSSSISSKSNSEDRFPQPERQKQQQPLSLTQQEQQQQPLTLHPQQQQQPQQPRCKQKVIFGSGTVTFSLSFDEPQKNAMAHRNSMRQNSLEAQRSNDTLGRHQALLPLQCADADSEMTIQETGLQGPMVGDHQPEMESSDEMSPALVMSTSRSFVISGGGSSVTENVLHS
Excerpt: C-cells appear to express a calcium receptor that is structurally similar to that present on parathyroid cells (see Example 31). […] Thus, compounds in this structural series appear to activate the C-cell calcium receptor.

[3] = hypocalcemic response in parathyroidectomized rats; format: in vivo, rat; conditions: NPS R-467 10 mg/kg i.p., 6 hours; NPS R-568 oral
Excerpt: To determine the primary target tissue upon which NPS R-467 acts to cause a hypocalcemic response, the parathyroid glands in rats were surgically removed. Animals receiving a total parathyroidectomy become hypocalcemic and are largely dependent upon dietary calcium to maintain serum Ca^2+ homeostasis.

[4] = serum/blood ionized Ca2+ in rats; format: in vivo, rat
Experimental: Compounds shown to activate the bovine parathyroid cell calcium receptor in vitro were tested for hypocalcemic activity in vivo. Male Sprague-Dawley rats (200 g) were maintained on a low calcium diet for one week prior to receiving test substance or vehicle as control. Blood was collected from the tail vein three hours after the intraperitoneal administration of NPS 467. […] Serum total calcium, albumin and phosphate were measured by techniques well known in the art.
Rats (male, Sprague-Dawley, 250-300 g) were fed standard rat chow and fasted overnight prior to the experiment. NPS R-467 was suspended in corn oil and administered as a single oral dose through a gavage needle. Three hours later a sample of blood was taken from the tail vein and assessed for ionized Ca^2+ levels.

[5] = 10 mg/kg i.p., single dose, normal diet

Compound: NCCCNCCCCNCCCNCCCNCCCNC(=O)Cc1c[nH]c2ccccc12 [NPS 019]
- concentrations evoking increases in Cl- current [1]: 3 to 30 µM
- response in the absence of extracellular Ca2+ [1]: persisted

Compound: COc1cccc([C@@H](C)NCCCc2ccccc2Cl)c1 [NPS R-568, (R)-(+)-N-[3-(2-chlorophenyl)propyl]-amethyl-α-3-methoxybenzylamine]
- increase in [Ca2+]i in 44-2 C-cells [2]: concentration-dependent increase
- serum ionized Ca2+ in parathyroidectomized rats [3]: fails to elicit a hypocalcemic response
- plasma Ca2+ ([4]; p.o., rats): rapid, dose-dependent decrease
- activation of oocyte-expressed human receptor [1]: activated the oocyte-expressed receptor at about the same concentrations
- effect on extracellular Ca2+ concentration-response curve [1]: shifted the concentration-response curve to the left
- concentrations evoking increases in Cl- current [1]: 3 to 30 µM
- response in the absence of extracellular Ca2+ [1]: abolished

Compound: COc1cccc([C@@H](C)NCCCc2ccccc2)c1 (single isomer, unassigned) [NPS R-467]
- increase in [Ca2+]i in 44-2 C-cells [2]: concentration-dependent increase
- serum ionized Ca2+ in parathyroidectomized rats [3]: did not cause any change in serum ionized
- decrease in serum ionized Ca2+ from the control level [4, 5]: 22%
- time to maximal fall in serum ionized Ca2+ [4, 5]: ≤ 1 h
- serum ionized Ca2+, oral ([4]; single oral dose in corn oil, 3 hours): lowers serum ionized calcium; also recorded: dose-dependent reduction in serum levels of ionized
- activation of oocyte-expressed human receptor [1]: activated the oocyte-expressed receptor at about the same concentrations
